Consider 26 compounds from patent publication USRE46856E1, “Substituted 2,3-dihydroimidazo[1,2-c]quinazoline derivatives useful for treating hyper-proliferative disorders and diseases associated with angiogenesis” (Bayer Intellectual Property GmbH, priority 2006, dated 2018).

Bounds are passed on as bounds.

The subject of one assay is IGF-1 induced AKT phosphorylation in A549 cells. The assay can be described thus: IGF-1 induced AKT phosphorylation assay (A549 cell assay). The conditions noted are these: Homo sapiens, A549, read-out: average IC50 in the A549 cell assay. In kind it is cell-based. The source says: [Determination of IC50 Values of Compounds in Cell Based Assays of PI3K Activity] 96-well collagen treated clear bottom/black sided Costar plates were purchased from CORNING LIFE SCIENCES (Corning, N.Y.; at.#3904). Gibco RPMI medium (Cat.#11875), Biosource anti-phospho-AKT([…]) antibody (Cat.#44-621G) and recombinant IGF-1 (Cat.#PHG0074) were purchased from INVITROGEN (Carlsbad, Calif.). The secondary donkey anti-rabbit IgG horse radish peroxidase conjugate (Cat. #N[…]) and ECL chemiluminesence reagent (Cat.#RPN2209) were purchased from […] (Buckinghamshire, UK). Cell culture tested bovine serum albumin solution (35% in DPBS; Cat.#A7979) and all other chemicals were purchased from SIGMA (St. Louis, Mo.). The Wallac Victor2 1420 Multilabel HTS Counter was purchased from […] (Wellesley, Mass.) […] All wells (except no IGF-1 controls) were then treated with 25 ng/ml IGF-1 for 10 minutes at 37° C. in a 5% CO2 incubator. Following removal of the supernatants and washing with the wells with TBS (50 mM Tris pH 8.0 containing 138 mM NaCL and 27 mM KCl), 200 µL of 3.7% formaldehyde in TBS was added to each well, and the plate was incubated at 4° C. for 10 minutes. Supernatants were once again removed and replaced with 50 μL Methanol (-20° C.) and the plate incubated at 4° C. for 5 minutes. 200 μL of 0.1% BSA in TBS was then added to each well and the plate incubated at room temperature for 1⁄2 hour. Supernatants were removed and 50 μL of a solution comprising the primary anti-phospho-AKT([…]) antibody diluted 1:250 in TBS containing 0.1% BSA was added to each well (except control/background wells). The plate was then incubated for 11⁄2 hour at room temperature. Supernatants were removed, each well was washed 3 times with 200 μL TBS, and 100 μL of a solution containing the secondary donkey anti-rabbit IgG antibody HRP-conjugate diluted 1:100 in TBS-T (TBS containing 0.1% triton). Plates were then incubated for 1 hour at room temperature. After removing the secondary antibody, each well was washed 6 times with cold TBS-T, 100 μL of ECL was added to each well, and the plate was placed on an orbital shaker for 1 minute. The plates were then read on a Wallac Victor2 1420 Multilabel HTS Counter using the luminometry window (maximum light detection is measured at […]). IC50 values were determined from the inhibition curve.
The IC50 is the concentration at which inhibition is half-maximal. For the compound `COc1c(OCCCN2CCOCC2)ccc2c1N=C(NC(=O)c1cnc(N)nc1)N1CCN=C21` [Example 13, 2-amino-N-[7-methoxy-8-(3-morpholin-4-ylpropoxy)-2,3-dihydroimidazo[1,2-c]quinazolin-5-yl]pyrimidine-5-carboxamide], the IC50 is below 100 nM.

The same assay, now with this note: Homo sapiens; A549 cells, 25 ng/ml IGF-1, phospho-AKT(Ser 473); read-out: average IC50 in the A549 cell assay.
Take `COc1c(OCCN2CCCCC2)ccc2c1N=C(NC(=O)c1cccnc1)N1CCN=C21` [Example 76, N-[7-methoxy-8-(2-piperidin-1-ylethoxy)-2,3-dihydroimidazo[1,2-c]quinazolin-5-yl]nicotinamide]: the IC50 was below 100 nM.

As for `CNc1ncc(C(=O)NC2=Nc3c(ccc(OCCCN4CCOCC4)c3OC)C3=NCCN23)cn1` [Example 90, N-[7-methoxy-8-(3-morpholin-4-ylpropoxy)-2,3-dihydroimidazo[1,2-c]quinazolin-5-yl]-2-(methylamino)pyrimidine-5-carboxamide], the IC50 is below 100 nM.

Consider `COc1c(OCC2CN(C)CCO2)ccc2c1N=C(NC(=O)c1cccnc1)N1CCN=C21` (centres unmarked) [Example 23, N-{7-methoxy-8-[(4-methylmorpholin-2-yl)methoxy]-2,3-dihydroimidazo[1,2-c]quinazolin-5-yl}nicotinamide], for which the IC50 is below 100 nM.

On to `COc1c(OCCCN2CCOCC2)ccc2c1N=C(NC(=O)c1cnc(SC)nc1)N1CCN=C21` [Example 91, N-[7-methoxy-8-(3-morpholin-4-ylpropoxy)-2,3-dihydroimidazo[1,2-c]quinazolin-5-yl]-2-(methylthio)pyrimidine-5-carboxamide], for which the IC50 was below 100 nM.

In the case of `COc1c(OCCCN2CCOCC2)ccc2c1N=C(NC(=O)c1cncnc1)N1CCN=C21` [Example 1, N-[7-methoxy-8-(3-morpholin-4-ylpropoxy)-2,3-dihydroimidazo[1,2-c]quinazolin-5-yl]pyrimidine-5-carboxamide], the IC50 is 100 to 1000 nM.

Turning to `COc1c(OCCCN2CCOCC2)ccc2c1N=C(NC(=O)c1ccoc1)N1CCN=C21` [Example 96, N-[7-methoxy-8-(3-morpholin-4-ylpropoxy)-2,3-dihydroimidazo[1,2-c]quinazolin-5-yl]-3-furamide], the IC50 fell in the range of 100 to 1000 nM.

Consider `COc1c(OCCCN2CCOCC2)ccc2c1N=C(NC(=O)c1ccncc1)N1CCN=C21` [Example 84, N-[7-methoxy-8-(3-morpholin-4-ylpropoxy)-2,3-dihydroimidazo[1,2-c]quinazolin-5-yl]isonicotinamide], for which the IC50 lay within 100 to 1000 nM.

As for `COc1c(OCCCN2CCOCC2)ccc2c1N=C(NC(=O)c1cncn1C)N1CCN=C21` [Example 30, N-[7-methoxy-8-(3-morpholin-4-ylpropoxy)-2,3-dihydroimidazo[1,2-c]quinazolin-5-yl]-1-methyl-1H-imidazole-5-carboxamide], the IC50 is 100 to 1000 nM.

Turning to `COc1c(OCCCN2CCOCC2)ccc2c1N=C(NC(=O)c1ccc(NC(=O)C3CC3)nc1)N1CCN=C21` [Example 60, 6-[(cyclopropylcarbonyl)amino]-N-[7-methoxy-8-(3-morpholin-4-ylpropoxy)-2,3-dihydroimidazo[1,2-c]quinazolin-5-yl]nicotinamide], the half-inhibitory concentration (IC50) is below 100 nM.

Turning to `CCN1CCOC(CCOc2ccc3c(c2OC)N=C(NC(=O)c2cccnc2)N2CCN=C32)C1` (centres unmarked) [Example 8, N-{8-[2-(4-ethylmorpholin-2-yl)ethoxy]-7-methoxy-2,3-dihydroimidazo[1,2-c]quinazolin-5-yl}nicotinamide], the IC50 was below 100 nM.

Regarding `COc1c(OCCCN2CCOCC2)ccc2c1N=C(NC(=O)c1ccc(NC(=O)C(C)C)nc1)N1CCN=C21` [Example 63, 6-(isobutyrylamino)-N-[7-methoxy-8-(3-morpholin-4-ylpropoxy)-2,3-dihydroimidazo[1,2-c]quinazolin-5-yl]nicotinamide], the IC50 is below 100 nM.

Consider `COc1c(OCCCN2C[C@@H](C)O[C@@H](C)C2)ccc2c1N=C(NC(=O)c1cccnc1)N1CCN=C21` [Example 2, N-(8-{3-[(2R,6S)-2,6-dimethylmorpholin-4-yl]propoxy}-7-methoxy-2,3-dihydroimidazo[1,2-c]quinazolin-5-yl)nicotinamide], for which the IC50 is below 100 nM.

Take `COc1c(OCCCN2CCOCC2)ccc2c1N=C(NC(=O)c1ccc(N)nc1)N1CCN=C21` [Example 83, 6-amino-N-[7-methoxy-8-(3-morpholin-4-ylpropoxy)-2,3-dihydroimidazo[1,2-c]quinazolin-5-yl]nicotinamide]: the IC50 is below 100 nM.

Take `COc1c(OCCCN2CCOCC2)ccc2c1N=C(NC(=O)c1cnc(N)o1)N1CCN=C21` [Example 34, 2-amino-N-[7-methoxy-8-(3-morpholin-4-ylpropoxy)-2,3-dihydroimidazo[1,2-c]quinazolin-5-yl]-1,3-oxazole-5-carboxamide]: the IC50 lay within 100 to 1000 nM.

Regarding `CCN(CC)CCCOc1ccc2c(c1OC)N=C(NC(=O)c1cccnc1)N1CCN=C21` [Example 85, N-{8-[3-(diethylamino)propoxy]-7-methoxy-2,3-dihydroimidazo[1,2-c]quinazolin-5-yl}nicotinamide], the IC50 was below 100 nM.

Turning to `COc1c(OCCCN2CCOCC2)ccc2c1N=C(NC(=O)c1cnc(N)nc1C)N1CCN=C21` [Example 32, 2-amino-N-[7-methoxy-8-(3-morpholin-4-ylpropoxy)-2,3-dihydroimidazo[1,2-c]quinazolin-5-yl]-4-methylpyrimidine-5-carboxamide], the IC50 was below 100 nM.

`COc1c(OCCCN2CCOCC2)ccc2c1N=C(NC(=O)c1cnc(N)c(Br)c1)N1CCN=C21` [Example 33, 6-amino-5-bromo-N-[7-methoxy-8-(3-morpholin-4-ylpropoxy)-2,3-dihydroimidazo[1,2-c]quinazolin-5-yl]nicotinamide]: the IC50 was below 100 nM.

With `COc1ccc(C(=O)NC2=Nc3c(ccc(OCCCN4CCOCC4)c3OC)C3=NCCN23)cn1` [Example 99, 6-methoxy-N-[7-methoxy-8-(3-morpholin-4-ylpropoxy)-2,3-dihydroimidazo[1,2-c]quinazolin-5-yl]nicotinamide], the IC50 was below 100 nM.

Turning to `COCCN1CCOC(COc2ccc3c(c2OC)N=C(NC(=O)c2cccnc2)N2CCN=C32)C1` (centres unmarked) [Example 22, N-(7-methoxy-8-{[4-(2-methoxyethyl)morpholin-2-yl]methoxy}-2,3-dihydroimidazo[1,2-c]quinazolin-5-yl)nicotinamide], the IC50 is below 100 nM.

In the case of `COc1c(OCCCN2CCOCC2)ccc2c1N=C(NC(=O)c1ccc(N3CCCC3)nc1)N1CCN=C21` [Example 72, N-[7-methoxy-8-(3-morpholin-4-ylpropoxy)-2,3-dihydroimidazo[1,2-c]quinazolin-5-yl]-6-pyrrolidin-1-ylnicotinamide], the IC50 lay within 100 to 1000 nM.

Regarding `COc1c(OCCCN2CCOCC2)ccc2c1N=C(NC(=O)c1coc(N)n1)N1CCN=C21` [Example 79, 2-amino-N-[7-methoxy-8-(3-morpholin-4-ylpropoxy)-2,3-dihydroimidazo[1,2-c]quinazolin-5-yl]-1,3-oxazole-4-carboxamide], the IC50 is above 1000 nM.

As for `CNc1nc(C(=O)NC2=Nc3c(ccc(OCCCN4CCOCC4)c3OC)C3=NCCN23)cs1` [Example 67, N-[7-methoxy-8-(3-morpholin-4-ylpropoxy)-2,3-dihydroimidazo[1,2-c]quinazolin-5-yl]-2-(methylamino)-1,3-thiazole-4-carboxamide], the IC50 is 100 to 1000 nM.

For `COc1c(OCCCN2CCOCC2)ccc2c1N=C(NC(=O)c1ccsc1)N1CCN=C21` [Example 97, N-[7-methoxy-8-(3-morpholin-4-ylpropoxy)-2,3-dihydroimidazo[1,2-c]quinazolin-5-yl]thiophene-3-carboxamide], the IC50 fell in the range of 100 to 1000 nM.

In the case of `COc1c(OCC(O)CN2CCOCC2)ccc2c1N=C(NC(=O)c1cccnc1)N1CCN=C21` (centres unmarked) [Example 16, N-[8-(2-hydroxy-3-morpholin-4-ylpropoxy)-7-methoxy-2,3-dihydroimidazo[1,2-c]quinazolin-5-yl]nicotinamide], the IC50 was below 100 nM.

With `COc1c(OCCCN2C[C@@H](C)O[C@@H](C)C2)ccc2c1N=C(NC(=O)c1sc(C)nc1C)N1CCN=C21` [Example 3, N-(8-{3-[(2R,6S)-2,6-dimethylmorpholin-4-yl]propoxy}-7-methoxy-2,3-dihydroimidazo[1,2-c]quinazolin-5-yl)-2,4-dimethyl-1,3-thiazole-5-carboxamide], the IC50 is below 100 nM.
